From patent USRE39576E1, “Enzyme inhibitors” (Smithkline Beecham Corporation, priority 1994, dated 2007)
Structures can show the parent of a compound that is named as a salt. Where two headings read alike, the source gives them in different places.

What was measured:
eNOS in rat aortic rings = target: T1, eNOS in rat aortic rings (Rattus norvegicus, UniProt Q62600); experiment: Inhibition of eNOS in situ in rat aortic rings (basal tone, intact endothelium); format: cell-based; settings: rings with intact endothelium; for inhibition at 300 µM: read-out: inhibition at 300 μM, cNOS in rat sortic rings; for IC50: basal tone, mean ±SEM (n), read-out: IC50 cNOS in rat sortic rings
T1 construct: from tissue; host or cells: rat thoracic aorta rings with intact endothelium
Experimental: (§1) The inhibition of eNOS and iNOS in situ in rat aortic rings was assessed by measuring the increases in ring tension caused by NO synthase inhibition. For studies of basal tone (reflecting eNOS), rings of thoracic aorta with intact endothelium were prepared as described previously (Rees et al. (1989) Br. J. Pharmacol. 96, 418-424) and cumulative concentration curves obtained for the inhibitors in the presence of a threshold concentration of phenylephrine (ED10≈10 nM). For studies of induced smooth muscle tone (reflecting iNOS), endothelium-denuded rings were exposed to LPS (0.1 μg/ml from S. typhosa) in the presence of phenylephrine at approximately ED90 for 6 h as described previously (Rees et al. (1990) Biochem. Biophys. Res. Commun. 173, 541-547). During this time a progressive loss of tone occurred because of iNOS induction. Cumulative concentration curves were then obtained for the inhibitors.

human iNOS [1] = target: T2, human iNOS (Homo sapiens, UniProt P35228); experiment: Inhibition of purified human iNOS ([14C]-L-arginine to citrulline conversion); format: biochemical; parameters: made in house; settings: for Selectivity for iNOS vs. cNOS: purified human enzymes, ratio of Kd; for Selectivity for iNOS vs. cNOS [relative to LNMMA]: value in square brackets
Experimental: (§2) The inhibition of purified human NO synthases was determined following preparation of human nNOS (Furfine et al. (1993) Biochem. 32, 8512-8517), iNOS (Sherman et al. (1993) Biochem. 32, 11600-11605) and eNOS (Garvey et al. (1994) Arch. Bioch. Biophys., in press) as described. Their activity was monitored by the conversion of [^14C]-L-arginine to citrulline as described by Schmidt et al. ((1991) Proc. Natl. Acad. Sci. USA 88, 365-369) in reaction mixtures (100 μl) containing 50 mM HEPES pH 7.0, 8 μM tetrahydrobiopterin, 1 mM NADPH and 0.5 μM [^14C]-L-arginine (30,000 cpm) at 30° C.

iNOS in rat aortic rings = target: T3, iNOS in rat aortic rings (Rattus norvegicus, UniProt Q06518); experiment: Inhibition of iNOS in situ in rat aortic rings (LPS-induced loss of tone, endothelium-denuded rings); format: cell-based; settings: for IC50: endothelium-denuded rings, LPS 6 h, mean ±SEM (n), read-out: IC50 iNOS in rate sortic rings; for Selectivity for iNOS: rat aortic rings, iNOS vs eNOS
T3 construct: During this time a progressive loss of tone occurred because of iNOS induction; from tissue; host or cells: rat thoracic aorta rings, endothelium-denuded, exposed to LPS
Experimental: as §1

human eNOS = target: T4, human eNOS (Homo sapiens, UniProt P29474); experiment: Inhibition of purified human eNOS ([14C]-L-arginine to citrulline conversion); format: biochemical; settings: purified human enzyme, 30° C., 0.5 μM [14C]-L-arginine; read-out: Purified Human Enzyme Kd tNOS
T4 construct: made in house
Experimental: as §2

human nNOS = target: T5, human nNOS (Homo sapiens, UniProt P29475); experiment: Inhibition of purified human nNOS ([14C]-L-arginine to citrulline conversion); format: biochemical; settings: 30° C., 0.5 μM [14C]-L-arginine, read-out: Purified Human Enzyme Kd nNOS
T5 construct: made in house
Experimental: as §2

human iNOS [2] = target: T2, human iNOS; experiment: Inhibition of recombinant human iNOS (baculovirus/insect cell cytosol, spectrophotometric microtitre plate assay); format: biochemical; parameters: made in house; host or cells: baculovirus/insect cell system; insect cytosol assayed unpurified; settings: 37° C., L-arginine 30 μM, steady-state 15-30 min; mean ±SEM (n)
Experimental: Inhibition of recombinant human iNOS was determined following expression in a baculovirus/insect cell system (Charles et al (1994) In: The Biology of Nitric Oxide 4, Moncada S., Feelisch M., Busse R. and Higgs E. A., eds., Portland Press, London, pp 316-320), assaying the insect cytosol for NO synthase in a microtitre plate assay based on the spectrophotometric assay described previously (Knowles et al (1990) Biochem. Biophys. Res. Commun. 172, 1042-1048). The assay was conducted at 37° C. in reaction mixtures containing HEPES (100 mM), DTT (0.1 mM), tetrahydrobiopterin (5 μM), NADPH (100 μM), haemoglobin (5 μM), L-arginine (30 μM) and inhibitor (0-300 μM), measuring the absorbance change at 405-420 nm, and determining the steady-state inhibition between 15 and 30 minutes incubation.

iNOS [3] = target: T6, iNOS (Mus musculus, UniProt P29477); experiment: Blood pressure in endotoxin shocked conscious mice (iNOS in vivo); settings: conscious female CD-1 mice, 7 h after LPS 12.5 mg/kg i.v.
T6 construct: from tissue; host or cells: whole animal: female CD-1 mice, 7 h after LPS
Experimental: (§3) The inhibition of eNOS and iNOS in vivo was assessed by the effects of inhibitors on blood pressure in either normal (eNOS) or endotoxin shocked (iNOS) conscious mice. Female CD-1 mice (25-35 g) were anaesthetised briefly with isofluorane (2%). Cannula lines were implanted in the femoral vein, tunnelled subcutaneously to exit at the top of the back and connected to a swivel tether system for continuous monitoring of blood pressure and for inhibitor administration respectively. Following recovery from surgery, animals with mean blood pressures in the normal range (90-110 mm Hg) were used to obtain cumulative concentration curves for inhibitors on blood pressure either without further treatment (“normal mice”) or 7 h after administration of lipopolysaccharide (12.5 mg/kg of LPS from E. coli 026:B6 intravenously over 30 s) to induce shock (“shocked mice”).

iNOS [4] = experiment: Endotoxin induced vascular (plasma) leakage in rats; format: in vivo
Experimental: The effects of Example 7 on endotoxin induced vascular leakage were assessed in rats as described by Laszlo et al ((1994) Brit. J. Pharmacol. 111 1309-1315). […] However, Example 7 did abolish the iNOS-dependent delayed plasma leakage, with an ED50 of 1 mg/kg.

eNOS = target: T7, eNOS (Mus musculus, UniProt P70313); experiment: Blood pressure in normal conscious mice (eNOS in vivo); settings: conscious female CD-1 mice, dose range 1-1000 mg/kg, intravenous
T7 construct: from tissue; host or cells: whole animal: female CD-1 mice, untreated
Experimental: as §3

[5] = purified human iNOS, 30° C., 0.5 μM [14C]-L-arginine, read-out: Purified Human Enzyme Kd iNOS

Compound | inhibition at 300 µM (eNOS in rat aortic rings) [%] | IC50 (eNOS in rat aortic rings) [µM] | Selectivity for iNOS vs. cNOS (human iNOS [1]) | Kd (human iNOS [1]; [5]) [nM] | Selectivity for iNOS vs. cNOS [relative to LNMMA] (human iNOS [1]) | IC50 (iNOS in rat aortic rings) [nM] | Selectivity for iNOS (iNOS in rat aortic rings) | Kd (human eNOS) [µM] | Kd (human nNOS) [µM] | IC50 (human iNOS [2]) [µM] | effect on blood pressure in shocked mice (iNOS [3]) | aggravation of the endotoxin-induced plasma leakage (iNOS [4]; doses up to 5 mg/kg, administered concurrently with endotoxin) | ED50, abolition of iNOS-dependent delayed plasma leakage (iNOS [4]; endotoxin induced) [mg/kg] | Kd (human iNOS [1]; footnote: inhibition strongly time dependant on iNOS, read-out: Kd on iNOS, time dependent inhibition) [nM] | effect on blood pressure in normal mice (eNOS)
Br.Br.N=C(CF)NCCS(=O)(=O)CC(N)C(=O)O (stereo not drawn) [Example 1, 2-Amino-6-(1-imino-2-fluoroethylamino)-4,4-dioxo-4-thiahexanoic acid dihydrobromide] | 8 | > 300 | 12 | 1900 | 33 | 1700 ± 700 | >>200-fold | 23 | 26 | 5.5 ± 0.55 | – | – | – | – | –
COCC(=N)NCCS(=O)(=O)CC(N)C(=O)O (stereo not drawn) [Example 2, 2-Amino-6-(1-imino-2-methoxyethylamino)-4,4-dioxo-4-thiohexanoic acid dihydrobromide dihydrate] | 26 | > 300 | – | – | – | 33000 ± 13000 | >10-fold | – | – | 30 ± 3 | – | – | – | – | –
CC(=O)OCC(=N)NCCS(=O)(=O)CC(N)C(=O)O (stereo not drawn) [Example 3, dihydrobromide] | – | – | – | – | – | – | – | – | – | > 300 | – | – | – | – | –
N=C(COCc1ccccc1)NCCS(=O)(=O)CC(N)C(=O)O (stereo not drawn) [Example 4, hydrobromide] | – | – | – | – | – | – | – | – | – | > 300 | – | – | – | – | –
CSCC(=N)NCCS(=O)(=O)CC(N)C(=O)O (stereo not drawn) [Example 5, 2-Amino-6-(2-methylthio-1-imioethylamino)-4,4-dioxo-4-thiohexanoic acid] | – | – | – | – | – | – | – | – | – | 95 ± 3 | – | – | – | – | –
N=C(CO)NCCS(=O)(=O)CC(N)C(=O)O (stereo not drawn) [Example 6, 2-Amino-6-(2-hydroxy-1-iminoethylamino)-4,4-dioxo-4-thiahexanoic acid 1.67 hydrochloride 0.33 hydrobromide] | – | – | – | – | – | – | – | – | – | > 300 | – | – | – | – | –
CC(=N)NCCS(=O)(=O)CC(N)C(=O)O (stereo not drawn) [Example 7, 2-Amino-6-(1-iminoethylamino)-4,4-dioxo-4-thiahexanoic acid] | – | 101 ± 21 | 27 | 2900 | 73 | 1500 ± 300 | 67-fold | 29 | 18 | 14 ± 0.6 | restore fully the blood pressure to the normal range | did not cause aggravation | 1 | 100 | no effect on blood pressure
CC(=N)NCC[S+]([O-])CC(N)C(=O)O (stereo not drawn) [Example 8, 2-Amino-6-(1-iminoethylamino)-4-oxo-4-thiahexanoic acid] | 42 | > 300 | 11 | 9100 | 30 | 2700 ± 200 | >100 fold | 100 | 68 | – | – | – | – | – | –
